In patent US4501914A, “2-Hydroxy-3-(o-methoxy-phenoxy)propyl 2-(p-isobutyl-phenyl)-propionate and pharmaceutical compositions containing the same” (priority 1982, dated 1985):

Tests used:
[1] = test system: Subplantar oedema induced by carrageenin; test: Anti-inflammatory activity - carrageenin oedema; assay type: in vivo, rats; conditions: for AREA % Absolute value / AREA % inhibition over controls: times 0-5
Method: The tests were carried out on rats, using a test in which a subplantar oedema was induced by carrageenin.
AFP 860 and, for comparison, 2-(p-isobutylphenyl)propionic acid (Ibuprofen) were administered orally 30 minutes before the carrageenin at the dosages specified below.
When the oedema had been induced, the animals in each group were monitored, every 60 minutes for 5 consecutive hours in order to ascertain the development of the inflammatory process.

[2] = Pulmonary tropism, Ibuprofen lung/plasma concentration ratio; assay type: in vivo, Charles River albino rats; conditions: rat
gastric mucosa = test: Gastrolesive action; conditions: for Mean dimensions (mm) Ulcers: 5 hours and 30 minutes after treatment, os, Ibuprofen 100 mg/kg, AFP 860 150 mg/kg
[3] = Pharmacokinetics, Ibuprofen plasma levels; assay type: in vivo, Charles River albino rats
[4] = test system: contortions induced by phenylquinone; test: Analgesic activity - phenylquinone contortions (Siegmund et al.); assay type: in vivo, mouse; conditions: for % inhib. over controls (contortions) / Mean No. of Contortions / No. animals undergoing contortions: 100 mg/kg os
[5] = test system: Pleurisy induced by carrageenin; test: Pleurisy induced by carrageenin (Vinegar et al.); assay type: in vivo, Sprague-Dawley rats; design: leukocytes × 1000: unit not given here; conditions: for % inhib. over control (leukocytes) / leukocytes × 1000 / % inhib. over control (volume of exudate) / Volume (pleural exudate): 100 mg/kg per os; for Volume (pleural exudate): unit assumed
Method: Sprague-Dawley rats of both sexes weighing between 150 and 200 g were used. The animals were divided into "at random" groups and were starved on the previous day with water ad lib.
The compounds in question were administered orally 30 minutes before the intrapleural injection at an equal dose by weight of 100 mg/kg.

[6] = background statement; cited from earlier work
[7] = test system: Hyperthermia induced by yeast; test: Antipyretic activity - hyperthermia induced by yeast (Boisser et al.); assay type: in vivo, male rats; conditions: for Rectal Temperature, 1 h / Rectal Temperature, 2 h / Rectal Temperature, 3 h / Rectal Temperature, 4 h / Rectal Temperature, 5 h / Rectal Temperature, basic / % inhib. over controls (hyperthermia): p.o., Ibuprofen 100 mg/kg, AFP 860 150 mg/kg
muscle relaxation = test: Muscle relaxant activity, metal grille test (Kondziella); assay type: in vivo; conditions: mouse, per os, AFP 860 150 mg/kg, mephenesine 100 mg/kg
Text: Use was made of the method of Kondziella (1964) which consists in suspending the mice from a metal grille and in recording the number of animals which remain suspended for more than 30 seconds. The animals which fall off during this time period are considered to be subject to muscle relaxation.
A metal grille having a 7 mm mesh and a surface area of 2×2 m disposed horizontally at 1.5 m from the ground was used for this test. The mice were selected on the day preceding the test, rejecting those which fell within 30 seconds. These were then divided into 7 at random groups and starved. AFP 860 and, for comparison purposes, mephenesine both suspended in 1% carboxymethylcellulose were administered per os at dosages of 150 mg/kg in the case of AFP 860 and 100 mg/kg in the case of mephenesine. A third group of mice acting as the control received 1% CMC in equal volumes to those used for the mice treated with the drugs.
For each mouse the grille suspension tests were carried out 15 and 30 minutes after administration of the drugs in order to enable the evaluation of the time of maximum activity and then every 30 minutes until the muscle relaxant effect had completely disappeared in order to establish the duration of this effect.
The parameter used for evaluating the results was the percentage of animals subject to muscle relaxation with respect to those treated.

[8] = test system: bronchosecretogogue activity; test: Bronchosecretogogue activity (Mawatari's technique); assay type: in vivo, Wistar rats; conditions: for % increase of FlNa (sodium fluorescein) with respect to controls: 500 mg/kg os
Method: Bronchosecretogogue activity was determined in Wistar rats by means of per os administration using the method of Mawatari (Mawatari H., Kagoshima Daiagaku Igaku-Zasshi, 27, 561 (1976), and comparing AFP 860 and guaiaphenesine at the dosages given below. The results are shown in Table 8.

[9] = Acute toxicity (Litchfield and Wilcoxon's Method), mouse; conditions: in vivo, po, per os
Method: (§1) The acute toxicity was tested on various species of animal using Litchfield and Wilcoxon's Method (J. Pharm. Exp. Therap., 96, 99-113 (1949).

bronchial secretion = test: Mucosecretolytic activity (technique of Giraldez et al.); assay type: in vivo, male rabbits; conditions: for % increase of bronchial secretion over controls: 500 mg/kg os
Method: Mucosecretolytic action was tested on male rabbits using the technique of Giraldez, Grass and Bruseghini (Abstr.Comp.Int.Pharm. N. 1086--Paris 1978) by means of oral administration and comparing AFP 860 with guaiaphenesine at the dosages given below.

[10] = Acute toxicity (Litchfield and Wilcoxon's Method), rabbit; conditions: in vivo, po, per os
Method: as §1

[11] = Acute toxicity (Litchfield and Wilcoxon's Method), rat; conditions: in vivo, po, per os
Method: as §1

[12] = per os, Ibuprofen 100 mg/kg, AFP 860 150 mg/kg

CC(C)Cc1ccc(C(C)C(=O)O)cc1 (stereo not shown) [Ibuprofen, 2-(p-isobutylphenyl)propionic acid, reference compound]
AREA % Absolute value [1, 12]: 184.0 | AREA % inhibition over controls [1, 12]: 40.8% | Kp at 0.5 h ([2]; lung, po, 30 mins, per os, Ibuprofen 27 mg/kg, AFP 860 50 mg/kg, read-out: Ibuprofen concentration ratio between lung and plasma): 0.2 | Kp at 1 h ([2]; lung, po, 1 hour, per os, Ibuprofen 27 mg/kg, AFP 860 50 mg/kg, read-out: Ibuprofen concentration ratio between lung and plasma): 0.3 | Mean dimensions (mm) Ulcers (gastric mucosa): 8.7 ± 1.4 mm | Tmax ([3]; rat, plasma, po, after Ibuprofen 27 mg/kg per os, read-out: time of Ibuprofen peak in plasma (converted)): 30 min | Cmax ([3]; rat, plasma, po, per os, equimolar: Ibuprofen 27 mg/kg, AFP 860 50 mg/kg, read-out: Ibuprofen peak plasma level): 24000 ng/mL | AUC ([3]; rat, plasma, po, per os, equimolar: Ibuprofen 27 mg/kg, AFP 860 50 mg/kg, read-out: area under the plasma level curve (AUC) for Ibuprofen): 49000 ng·h/mL | % inhib. over controls (contortions) [4]: 82.26% | Mean No. of Contortions [4]: 1.8 ± 0.6 | No. animals undergoing contortions [4]: 1/10 | % inhib. over control (leukocytes) ([5]; 5 hours): 69.32% | leukocytes × 1000 ([5]; 5 hours): 5,380 × 1000 | % inhib. over control (leukocytes) ([5]; 24 hours): 7.47% | leukocytes × 1000 ([5]; 24 hours): 16,950 × 1000 | gastric lesions (in words) [6]: considerable gastric lesions | Rectal Temperature, 1 h [7]: 38.0 °C | Rectal Temperature, 2 h [7]: 37.7 °C | Rectal Temperature, 3 h [7]: 37.3 °C | Rectal Temperature, 4 h [7]: 37.5 °C | Rectal Temperature, 5 h [7]: 37.4 °C | Rectal Temperature, basic [7]: 38.8 °C | % inhib. over controls (hyperthermia) [7]: 119.0%

COc1ccccc1OCC(O)COC(=O)C(C)c1ccc(CC(C)C)cc1 (stereo not shown) [AFP 860, 2-hydroxy-3-(o-methoxyphenoxy)propyl 2-(p-isobutyl-phenyl)-propionate]
% animals subject to muscle relaxation (muscle relaxation): 60% | anti-inflammatory activity (in words) ([1]; carrageenin oedema, compared with Ibuprofen): excellent anti-inflammatory activity which is comparable to that of Ibuprofen | Mean paw volume during treatment, time 0 ([1]; time 0, per os, Ibuprofen 100 mg/kg, AFP 860 150 mg/kg): 22.1 | Mean paw volume during treatment, time 1 ([1]; time 1 (every 60 minutes), per os, Ibuprofen 100 mg/kg, AFP 860 150 mg/kg): 27.1 | Mean paw volume during treatment, time 2 ([1]; time 2 (every 60 minutes), per os, Ibuprofen 100 mg/kg, AFP 860 150 mg/kg): 30.2 | Mean paw volume during treatment, time 3 ([1]; time 3 (every 60 minutes), per os, Ibuprofen 100 mg/kg, AFP 860 150 mg/kg): 31.6 | Mean paw volume during treatment, time 4 ([1]; time 4 (every 60 minutes), per os, Ibuprofen 100 mg/kg, AFP 860 150 mg/kg): 32.2 | Mean paw volume during treatment, time 5 ([1]; time 5 (every 60 minutes), per os, Ibuprofen 100 mg/kg, AFP 860 150 mg/kg): 34.7 | AREA % Absolute value [1, 12]: 176.5 | AREA % inhibition over controls [1, 12]: 43.2% | % increase of FlNa (sodium fluorescein) with respect to controls [8]: 24.5% | bronchosecretogogue effect (in words) ([8]; compared with guaiaphenesine, equal doses by weight): considerable effect as a bronchosecretogogue which may in practice be considered superimposable to that of guaiaphenesine | pulmonary tropism (in words) ([2]; in vivo): marked pulmonary tropism | Mean dimensions (mm) Ulcers (gastric mucosa): 0.8 ± 0.3 mm | gastrolesivity (in words) (gastric mucosa; compared with Ibuprofen): much lower than the Ibuprofen | LD50 [9]: 1850 mg/kg | % increase of bronchial secretion over controls (bronchial secretion): 32.7% | secretolytic activity (in words) (bronchial secretion; compared with guaiaphenesine at the same dosages by weight): remarkable secretolytic activity which is comparable with that of guaiaphenesine | Ibuprofen plasma levels (in words) ([3]; end of first hour to sixth hour, AFP 860 versus Ibuprofen per se): higher after the administration of AFP 860 than after the administration of Ibuprofen per se | latency and bio-availability (in words) ([3]; with respect to Ibuprofen and guaiaphenesine): greater degree of latency and an improved bio-availability both with respect to Ibuprofen and guaiaphenesine | analgesic activity (in words) ([4]; 100 mg/kg orally, compared with Ibuprofen at equal dosage by weight): slightly inferior to that of Ibuprofen | % inhib. over controls (contortions) [4]: 70.45% | Mean No. of Contortions [4]: 3.9 ± 1.4 | No. animals undergoing contortions [4]: 2/10 | % inhib. over control (leukocytes) ([5]; 5 hours): 70.75% | % inhib. over control (volume of exudate) ([5]; 5 hours): 43.18% | leukocytes × 1000 ([5]; 5 hours): 5,130 × 1000 | Volume (pleural exudate) ([5]; 5 hours): 0.54 mL | % inhib. over control (leukocytes) ([5]; 24 hours): 60.75% | % inhib. over control (volume of exudate) ([5]; 24 hours): 48.19% | leukocytes × 1000 ([5]; 24 hours): 7,190 × 1000 | Volume (pleural exudate) ([5]; 24 hours): 0.43 mL | protective action (in words) ([5]; after 24 hours, compared with Ibuprofen): much greater than that of Ibuprofen | anti-inflammatory activity (in words) ([5]; pleurisy, equal doses by weight, compared with the comparison drug (Ibuprofen)): greater in absolute terms and of longer duration | LD50 [10]: 3300 mg/kg | Rectal Temperature, 1 h [7]: 37.7 °C | Rectal Temperature, 2 h [7]: 37.7 °C | Rectal Temperature, 3 h [7]: 37.5 °C | Rectal Temperature, 4 h [7]: 37.3 °C | Rectal Temperature, 5 h [7]: 37.2 °C | Rectal Temperature, basic [7]: 38.4 °C | antipyretic activity (in words) ([7]; compared with Ibuprofen): very good antipyretic activity, which is in practice the same as that of Ibuprofen | % inhib. over controls (hyperthermia) [7]: 127.0% | LD50 [11]: 2510 mg/kg

COc1ccccc1OCC(O)CO (stereo not shown) [Guaiaphenesine, 3-(o-methoxyphenoxy)-1,2-propandiol, reference compound]
% increase of FlNa (sodium fluorescein) with respect to controls [8]: 20.3% | % increase of bronchial secretion over controls (bronchial secretion): 34.4%

Cc1ccccc1OCC(O)CO (stereo not shown) [Mephenesine, reference compound]
% animals subject to muscle relaxation (muscle relaxation): 60%
